Calls of active or inactive are those of the source.
Experiments:
HEK293 [1] = test: NOD2 signaling inhibitors in MDP-stimulated cells, cell-based, uHTS, luminescence (AID 2001); type: functional; conditions: Homo sapiens
HEK293 [2] = test: cells; type: functional, cell-based; conditions: Homo sapiens
HEK293 [3] = test: inhibition of NOD1-driven NF-kB reporter – cell-based, luminescence, uHTS, primary screen (AID 1578); type: functional; conditions: Homo sapiens
[4] = target: Nucleotide-binding oligomerization domain-containing protein 2 (Homo sapiens, UniProt Q9HC29); test: inhibition of NOD2-driven NF-kB reporter – cell-based, luminescence, uHTS, HEK293 (AID 1566); type: functional
HEK293 [5] = test: cells; type: functional, cell-based; conditions: Homo sapiens; remark: listed apart in the source
Vero [6] = test: cells; type: functional, cell-based; conditions: Chlorocebus sabaeus
Vero [7] = test: cells; type: functional; conditions: Chlorocebus sabaeus
Cytochrome P450 3A4 = Cytochrome P450 3A4 (Homo sapiens, UniProt P08684);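 also: CYP3A4 tested as one member of a cytochrome P450 panel screen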
[8] = target: DNA dC->dU-editing enzyme APOBEC-3G (Homo sapiens, UniProt Q9HC16); test: Dose Response confirmation of small molecule APOBEC3G DNA Deaminase Inhibitors via a fluorescence-based single-stranded DNA deaminase assay. [Related pubchem assays (depositor defined):AID493012, AID493028]; type: functional
[9] = target: DNA dC->dU-editing enzyme APOBEC-3A (Homo sapiens, UniProt P31941); test: A3A deaminase inhibition for selectivity – biochemical, dose response (AID 504722); type: functional
Cytochrome P450 2C19 = Cytochrome P450 2C19 (Homo sapiens, UniProt P33261); test: Cytochrome panel assay with activity outcomes. Panel member name: p450-cyp2c19 Compounds with AC50 equal or less than 10 uM are considered active; type: functional; conditions: read-out: AC50
[10] = HepG2 cell cytotoxicity, dose response, cytotoxicity control for non-replicating M. tuberculosis project (AID 489018); type: functional; conditions: Mycobacterium tuberculosis
[11] = Trypanosoma cruzi growth suppression in host cells – NIH3T3 host cells, beta-gal luminescence, confirmation (AID 2044); type: functional, cell-based;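 also: intracellular parasites grown in NIH/3T3 mouse fibroblasts as host cells; luminescent beta-galactosidase reporter signal from transgenic T. cruzi replicating inside host cells; inhibitors lower the luminescence signal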
[12] = target: FAD-linked sulfhydryl oxidase ALR (Homo sapiens, UniProt P55789); test: ALR-catalysed DTT oxidation blockers – biochemical, H2O2 detection, luminescence, cherry-pick, dose response (AID 493248)
[13] = Vero E6 cell cytotoxicity, dose response, cytotoxicity control for non-replicating M. tuberculosis project, secondary assay (AID 492998); type: functional, VeroE6; conditions: Vero C1008
[14] = THP-1 cell cytotoxicity, dose response, cytotoxicity control for non-replicating M. tuberculosis project (AID 489025); type: functional
Large T antigen = Large T antigen (Simian virus 40, UniProt P03070); type: functional, Betapolyomavirus macacae;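 also: Confirmatory-stage PubChem screen for compounds that inhibit SV40 T antigen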
[15] = NIH3T3 cell viability loss – ATP luminescence, mouse fibroblasts, counter-screen, dose response (AID 2010); type: functional, cell-based;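 also: cells exposed to compound for about 90 hours before reading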
cells = type: functional
INS1 = test: INS-1E survival protection against cytokine death – cell-based, luminescence, retest, dose response (AID 449756); type: functional; conditions: Rattus norvegicus;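 also: cell death triggered by IL-1 beta plus TNF-alpha plus IFN-gamma mixture; protective hits raise ATP signal compared with cytokine alone wells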
[16] = target: T1, Short transient receptor potential channel 4 (Mus musculus, UniProt Q9QUQ5); test: block of DAMGO-driven TRPC4 calcium entry – cell-based, HEK293 TRPC4/mu-opioid, Fluo-4 calcium, dose response (AID 434942); type: functional;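 also: potency of inhibitors blocking the TRPC4 calcium response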
T1 sequence (Q9QUQ5 whole entry): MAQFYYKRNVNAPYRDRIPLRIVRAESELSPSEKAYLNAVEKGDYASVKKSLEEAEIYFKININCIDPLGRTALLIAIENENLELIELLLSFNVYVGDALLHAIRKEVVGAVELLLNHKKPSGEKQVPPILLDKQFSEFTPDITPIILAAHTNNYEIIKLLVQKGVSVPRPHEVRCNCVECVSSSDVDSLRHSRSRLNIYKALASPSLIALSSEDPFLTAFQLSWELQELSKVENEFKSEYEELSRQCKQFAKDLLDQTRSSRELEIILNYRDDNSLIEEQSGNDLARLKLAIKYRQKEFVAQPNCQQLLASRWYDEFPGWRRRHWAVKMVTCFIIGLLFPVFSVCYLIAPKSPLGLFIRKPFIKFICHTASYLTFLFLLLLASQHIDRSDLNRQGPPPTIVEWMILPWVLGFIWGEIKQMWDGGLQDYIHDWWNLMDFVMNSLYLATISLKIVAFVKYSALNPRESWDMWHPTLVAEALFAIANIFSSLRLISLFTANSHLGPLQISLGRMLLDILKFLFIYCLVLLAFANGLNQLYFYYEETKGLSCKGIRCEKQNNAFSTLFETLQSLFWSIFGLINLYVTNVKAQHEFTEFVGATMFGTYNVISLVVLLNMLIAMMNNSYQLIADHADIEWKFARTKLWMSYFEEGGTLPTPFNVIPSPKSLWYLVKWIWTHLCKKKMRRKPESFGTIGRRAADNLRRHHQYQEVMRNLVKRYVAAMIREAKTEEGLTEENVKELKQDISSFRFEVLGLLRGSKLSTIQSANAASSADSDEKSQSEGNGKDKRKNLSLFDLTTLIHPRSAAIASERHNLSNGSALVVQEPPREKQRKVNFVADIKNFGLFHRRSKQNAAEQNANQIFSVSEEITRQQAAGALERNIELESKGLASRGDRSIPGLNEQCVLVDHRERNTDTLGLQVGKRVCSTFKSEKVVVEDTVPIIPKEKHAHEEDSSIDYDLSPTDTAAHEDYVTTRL

P388 = test: cells; type: functional; conditions: Mus musculus
P388/ADR = test: cells; type: functional; conditions: Mus musculus
SN12K1 = test: cells; type: functional; conditions: Homo sapiens
Protein RecA = target: T2, Protein RecA (Mycobacterium tuberculosis, UniProt P9WHJ3); test: Fluorescence Cell-Free Homogeneous Dose Retest to Identify Inhibitors of RecA-Intein Splicing Activity. [Related pubchem assays (depositor defined):AID2097, AID2223, AID489010, AID492950]; type: functional
T2 sequence (P9WHJ3 whole entry): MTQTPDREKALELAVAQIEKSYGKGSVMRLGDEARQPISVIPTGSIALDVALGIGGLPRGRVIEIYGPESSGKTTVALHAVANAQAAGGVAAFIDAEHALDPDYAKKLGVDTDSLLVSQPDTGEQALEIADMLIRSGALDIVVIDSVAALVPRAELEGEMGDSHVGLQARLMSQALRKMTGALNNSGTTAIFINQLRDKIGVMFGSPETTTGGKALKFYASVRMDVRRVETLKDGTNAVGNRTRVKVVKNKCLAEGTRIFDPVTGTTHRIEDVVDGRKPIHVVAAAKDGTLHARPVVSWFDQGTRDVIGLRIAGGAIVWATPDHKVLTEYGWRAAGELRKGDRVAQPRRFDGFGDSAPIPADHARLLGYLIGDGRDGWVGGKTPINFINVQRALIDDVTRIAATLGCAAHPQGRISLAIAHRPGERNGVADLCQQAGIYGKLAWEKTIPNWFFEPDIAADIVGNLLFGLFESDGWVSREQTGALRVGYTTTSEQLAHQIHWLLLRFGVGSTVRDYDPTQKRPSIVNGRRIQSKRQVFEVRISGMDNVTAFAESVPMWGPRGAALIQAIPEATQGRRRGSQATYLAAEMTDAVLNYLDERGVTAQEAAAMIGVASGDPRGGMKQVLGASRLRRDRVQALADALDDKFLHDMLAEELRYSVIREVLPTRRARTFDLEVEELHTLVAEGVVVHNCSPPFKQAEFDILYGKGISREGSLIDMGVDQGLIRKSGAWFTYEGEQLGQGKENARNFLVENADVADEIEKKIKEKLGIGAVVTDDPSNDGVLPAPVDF

[17] = target: T3, Replicative DNA helicase DnaB (Mycobacterium tuberculosis, UniProt P9WMR3); test: DnaB intein splicing inhibitors, dose response, biochemical, cell-free fluorescence (AID 449749); type: functional
T3 sequence (P9WMR3 whole entry): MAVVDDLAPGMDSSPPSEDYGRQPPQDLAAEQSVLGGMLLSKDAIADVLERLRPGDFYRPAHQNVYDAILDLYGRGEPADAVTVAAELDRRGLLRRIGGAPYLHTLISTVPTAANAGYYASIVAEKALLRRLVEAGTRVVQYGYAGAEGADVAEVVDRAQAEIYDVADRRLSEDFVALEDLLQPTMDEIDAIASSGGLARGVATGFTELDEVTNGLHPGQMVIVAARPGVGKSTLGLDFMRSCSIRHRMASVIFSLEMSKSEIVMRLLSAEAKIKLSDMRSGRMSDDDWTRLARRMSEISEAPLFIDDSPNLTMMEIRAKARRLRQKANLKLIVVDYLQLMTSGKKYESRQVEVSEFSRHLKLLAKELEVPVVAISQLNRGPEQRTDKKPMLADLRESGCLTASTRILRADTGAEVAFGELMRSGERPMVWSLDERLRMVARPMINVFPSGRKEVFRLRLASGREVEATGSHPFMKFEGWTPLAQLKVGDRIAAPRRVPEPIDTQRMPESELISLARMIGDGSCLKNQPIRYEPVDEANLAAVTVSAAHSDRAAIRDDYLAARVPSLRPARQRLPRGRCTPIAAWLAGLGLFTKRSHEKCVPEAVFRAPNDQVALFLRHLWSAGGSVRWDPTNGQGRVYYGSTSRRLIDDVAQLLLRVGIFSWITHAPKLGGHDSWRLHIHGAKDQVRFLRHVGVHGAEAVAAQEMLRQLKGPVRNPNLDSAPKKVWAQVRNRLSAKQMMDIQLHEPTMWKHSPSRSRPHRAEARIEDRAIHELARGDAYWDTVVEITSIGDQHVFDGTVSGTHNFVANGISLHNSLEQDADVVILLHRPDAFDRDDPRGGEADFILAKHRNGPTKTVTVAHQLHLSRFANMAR

Cytochrome P450 1A2 = target: T4, Cytochrome P450 1A2 (Homo sapiens, UniProt P05177);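 also: PubChem cytochrome P450 panel assay, CYP1A2 panel member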
T4 sequence (P05177 whole entry): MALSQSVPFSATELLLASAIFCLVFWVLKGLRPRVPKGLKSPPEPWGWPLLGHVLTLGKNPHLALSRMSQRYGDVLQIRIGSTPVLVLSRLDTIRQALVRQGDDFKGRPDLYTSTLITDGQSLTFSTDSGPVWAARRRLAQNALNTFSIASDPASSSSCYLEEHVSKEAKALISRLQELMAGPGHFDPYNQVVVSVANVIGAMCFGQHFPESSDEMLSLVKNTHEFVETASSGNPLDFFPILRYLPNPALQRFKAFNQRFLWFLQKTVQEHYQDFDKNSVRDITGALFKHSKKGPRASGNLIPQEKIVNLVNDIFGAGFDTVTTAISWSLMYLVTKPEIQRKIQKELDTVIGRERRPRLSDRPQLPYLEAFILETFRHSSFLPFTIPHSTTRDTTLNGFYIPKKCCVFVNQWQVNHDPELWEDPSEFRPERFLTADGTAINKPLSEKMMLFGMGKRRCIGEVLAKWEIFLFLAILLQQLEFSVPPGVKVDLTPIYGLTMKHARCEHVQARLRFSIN

Nonstructural protein 1 = Nonstructural protein 1 (Influenza A virus, UniProt Q194T2); type: functional, Influenza A virus (A/California/07/2009(H1N1))
Nonstructural protein 1, sequence (Q194T2 whole entry): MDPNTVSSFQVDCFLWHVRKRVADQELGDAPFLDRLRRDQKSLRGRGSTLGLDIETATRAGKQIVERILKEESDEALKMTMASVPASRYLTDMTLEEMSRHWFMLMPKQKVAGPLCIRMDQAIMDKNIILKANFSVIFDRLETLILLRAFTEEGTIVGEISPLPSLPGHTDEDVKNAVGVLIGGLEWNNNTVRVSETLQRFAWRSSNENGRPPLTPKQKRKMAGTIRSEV

Cytochrome P450 3A4, sequence (P08684 whole entry): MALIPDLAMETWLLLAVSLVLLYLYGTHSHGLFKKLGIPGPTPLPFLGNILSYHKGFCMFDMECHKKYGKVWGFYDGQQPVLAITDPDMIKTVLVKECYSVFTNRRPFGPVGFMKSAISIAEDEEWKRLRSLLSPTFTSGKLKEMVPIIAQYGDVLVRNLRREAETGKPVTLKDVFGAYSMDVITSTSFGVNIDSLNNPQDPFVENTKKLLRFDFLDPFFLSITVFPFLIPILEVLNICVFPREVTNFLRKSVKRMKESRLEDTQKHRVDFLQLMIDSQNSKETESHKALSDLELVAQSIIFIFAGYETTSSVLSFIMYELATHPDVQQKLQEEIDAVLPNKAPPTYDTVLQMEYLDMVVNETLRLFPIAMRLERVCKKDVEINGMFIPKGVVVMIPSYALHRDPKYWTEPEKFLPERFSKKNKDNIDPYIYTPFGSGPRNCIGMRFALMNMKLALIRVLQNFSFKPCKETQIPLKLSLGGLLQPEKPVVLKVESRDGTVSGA
Nucleotide-binding oligomerization domain-containing protein 2, sequence (Q9HC29 whole entry, the tested form may be a part): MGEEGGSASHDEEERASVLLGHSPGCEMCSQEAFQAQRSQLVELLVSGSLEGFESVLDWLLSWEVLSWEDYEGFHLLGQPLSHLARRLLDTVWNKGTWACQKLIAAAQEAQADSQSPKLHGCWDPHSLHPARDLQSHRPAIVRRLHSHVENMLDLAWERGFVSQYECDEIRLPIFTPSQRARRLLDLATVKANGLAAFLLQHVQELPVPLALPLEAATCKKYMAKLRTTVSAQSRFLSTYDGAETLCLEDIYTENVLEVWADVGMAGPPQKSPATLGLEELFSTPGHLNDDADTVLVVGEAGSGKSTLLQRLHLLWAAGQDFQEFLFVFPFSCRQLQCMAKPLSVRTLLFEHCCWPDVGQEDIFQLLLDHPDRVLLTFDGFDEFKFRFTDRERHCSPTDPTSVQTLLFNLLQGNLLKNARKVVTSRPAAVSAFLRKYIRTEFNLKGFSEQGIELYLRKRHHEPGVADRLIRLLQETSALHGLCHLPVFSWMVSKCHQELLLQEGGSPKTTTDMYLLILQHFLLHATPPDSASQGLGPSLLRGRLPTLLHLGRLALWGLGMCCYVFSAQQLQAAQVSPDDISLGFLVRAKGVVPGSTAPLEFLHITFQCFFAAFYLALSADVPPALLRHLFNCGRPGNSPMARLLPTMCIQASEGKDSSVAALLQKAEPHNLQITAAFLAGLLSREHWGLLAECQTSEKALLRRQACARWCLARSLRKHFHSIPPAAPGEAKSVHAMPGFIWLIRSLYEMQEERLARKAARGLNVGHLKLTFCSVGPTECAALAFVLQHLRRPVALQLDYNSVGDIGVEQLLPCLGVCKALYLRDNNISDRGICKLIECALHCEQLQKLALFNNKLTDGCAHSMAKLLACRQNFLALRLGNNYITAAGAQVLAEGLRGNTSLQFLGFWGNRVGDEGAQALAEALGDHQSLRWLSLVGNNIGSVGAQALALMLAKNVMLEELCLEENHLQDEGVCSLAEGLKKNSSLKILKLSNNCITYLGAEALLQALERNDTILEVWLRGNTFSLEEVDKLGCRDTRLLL
Large T antigen, sequence (P03070 whole entry): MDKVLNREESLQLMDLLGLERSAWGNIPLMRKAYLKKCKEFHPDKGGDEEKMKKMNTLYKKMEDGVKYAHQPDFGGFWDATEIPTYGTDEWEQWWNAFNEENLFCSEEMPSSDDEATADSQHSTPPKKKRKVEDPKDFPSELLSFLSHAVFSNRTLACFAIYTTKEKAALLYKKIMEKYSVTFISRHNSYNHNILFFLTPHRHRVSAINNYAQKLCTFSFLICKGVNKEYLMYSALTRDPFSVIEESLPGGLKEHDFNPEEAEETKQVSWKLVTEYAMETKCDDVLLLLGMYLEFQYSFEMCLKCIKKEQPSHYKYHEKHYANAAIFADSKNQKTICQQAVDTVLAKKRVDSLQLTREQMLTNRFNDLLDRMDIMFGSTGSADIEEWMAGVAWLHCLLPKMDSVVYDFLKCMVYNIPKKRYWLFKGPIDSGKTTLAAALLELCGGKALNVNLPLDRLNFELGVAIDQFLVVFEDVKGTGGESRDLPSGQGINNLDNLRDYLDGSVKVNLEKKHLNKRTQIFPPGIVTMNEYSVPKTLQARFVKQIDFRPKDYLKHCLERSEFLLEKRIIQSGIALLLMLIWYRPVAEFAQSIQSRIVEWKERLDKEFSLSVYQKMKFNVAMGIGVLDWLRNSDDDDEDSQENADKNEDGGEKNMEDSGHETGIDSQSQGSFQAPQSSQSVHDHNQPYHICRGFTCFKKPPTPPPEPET
FAD-linked sulfhydryl oxidase ALR, sequence (P55789 whole entry): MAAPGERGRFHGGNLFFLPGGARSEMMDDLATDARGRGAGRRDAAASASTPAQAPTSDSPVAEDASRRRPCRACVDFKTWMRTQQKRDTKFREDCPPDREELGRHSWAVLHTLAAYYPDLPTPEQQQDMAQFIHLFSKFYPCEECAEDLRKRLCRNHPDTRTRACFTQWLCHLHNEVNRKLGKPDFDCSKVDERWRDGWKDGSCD
Cytochrome P450 2C19, sequence (P33261 whole entry): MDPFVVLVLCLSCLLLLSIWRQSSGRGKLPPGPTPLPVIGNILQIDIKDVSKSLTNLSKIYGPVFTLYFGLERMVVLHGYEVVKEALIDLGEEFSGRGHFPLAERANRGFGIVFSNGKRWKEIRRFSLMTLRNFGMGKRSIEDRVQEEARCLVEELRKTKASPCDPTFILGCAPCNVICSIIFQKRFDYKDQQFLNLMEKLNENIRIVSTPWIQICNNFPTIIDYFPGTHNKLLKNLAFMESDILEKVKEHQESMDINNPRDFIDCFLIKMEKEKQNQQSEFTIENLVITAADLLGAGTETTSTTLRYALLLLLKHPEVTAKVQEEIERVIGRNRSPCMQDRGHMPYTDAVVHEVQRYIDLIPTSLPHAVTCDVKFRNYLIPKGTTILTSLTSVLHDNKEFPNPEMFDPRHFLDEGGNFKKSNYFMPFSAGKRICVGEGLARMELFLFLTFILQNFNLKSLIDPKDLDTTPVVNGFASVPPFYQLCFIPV
DNA dC->dU-editing enzyme APOBEC-3A, sequence (P31941 whole entry): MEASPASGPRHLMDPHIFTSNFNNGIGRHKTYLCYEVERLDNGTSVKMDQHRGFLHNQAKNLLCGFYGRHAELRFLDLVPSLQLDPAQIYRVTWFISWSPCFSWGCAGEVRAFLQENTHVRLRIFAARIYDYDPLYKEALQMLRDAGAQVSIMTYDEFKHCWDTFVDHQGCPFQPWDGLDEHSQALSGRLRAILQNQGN
DNA dC->dU-editing enzyme APOBEC-3G, sequence (Q9HC16 whole entry): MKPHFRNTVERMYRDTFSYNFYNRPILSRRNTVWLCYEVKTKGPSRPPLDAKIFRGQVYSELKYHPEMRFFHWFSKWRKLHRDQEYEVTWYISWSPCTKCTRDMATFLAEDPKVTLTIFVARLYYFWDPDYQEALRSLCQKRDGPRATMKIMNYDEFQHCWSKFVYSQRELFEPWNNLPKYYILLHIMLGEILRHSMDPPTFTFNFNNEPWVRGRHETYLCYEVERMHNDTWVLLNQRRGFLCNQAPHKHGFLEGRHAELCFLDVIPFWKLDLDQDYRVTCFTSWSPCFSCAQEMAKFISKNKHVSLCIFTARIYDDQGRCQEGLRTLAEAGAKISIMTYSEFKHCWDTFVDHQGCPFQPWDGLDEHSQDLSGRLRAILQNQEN

CC(=O)c1ccc(-n2c(C)c(C(C)=O)c3cc(O)ccc32)cc1
IC50 (HEK293 [1]): 2.7 µM (active) | IC50 (HEK293 [2]): > 20 µM (inactive) | EC50 (HEK293 [3]): > 20 µM (inactive) | EC50 [4]: > 20 µM (inactive) | IC50 (HEK293 [5]): 1.94 µM (active)

Cc1ccc(OCCCCCCN2CCNCC2)c(Br)c1
IC50 (Vero [6]): 19.7 µM (active) | CC50 (Vero [7]): 21.8 µM (active)

c1ccc(CCCCN2CCC(c3ccccc3)CC2)cc1
AC50 (Cytochrome P450 3A4): inconclusive

C=C(C)Cn1c(-c2cccc([N+](=O)[O-])c2)n[nH]c1=S
IC50 [8]: 5.5 µM (active) | IC50 [9]: > 100 µM (inactive)

CCC(C)NC(=O)c1cnn2c(C)c3c(nc12)CCCC3 (stereo not drawn)
AC50 (Cytochrome P450 2C19): 31.6 µM (inconclusive) | AC50 (Cytochrome P450 3A4): inconclusive

Cc1ccc2nc(-c3ccccn3)c(NC3CCCC3)n2c1
CC50 [10]: > 20 µM (active) | EC50 [11]: 1.74 µM (active) | AC50 [12]: 7.26 µM (active) | CC50 [13]: 16.5 µM (active) | CC50 [14]: 14.3 µM (active) | IC50 (Large T antigen): 11.6 µM (active) | EC50 [15]: > 60 µM (not active) | IC50 (cells): 4.95 µM (active) | AC50 (INS1): 8.58 µM (active)

c1ccn2cc(C34CC5CC(CC(C5)C3)C4)nc2c1
EC50 [16]: 6.68 µM (active)

CN1CCN(c2ncc3nc(-c4ccc(Cl)cc4)c(=O)n(Cc4cccs4)c3n2)CC1
AC50 (Cytochrome P450 3A4): inconclusive

N=C(N)NCCCCCCC(=O)NC(O)C(=O)NCCCCNCCCN (stereo not drawn)
GI50 (P388): 30.1 µM (inactive) | GI50 (P388/ADR): 55.2 µM (inactive) | GI50 (SN12K1): 731 µM (inactive)

O=C1c2ccccc2-n2c1nc1ccccc1c2=O [TRYPTANTHRIN]
CC50 [10]: > 20 µM (active) | EC50 (Protein RecA): 0.643 µM (active) | AC50 [17]: 1.08 µM (active) | CC50 [13]: > 20 µM (active) | CC50 [14]: 17.5 µM (active) | IC50 (cells): 0.33 µM (active)

Cc1csc(/N=C(/NCCN2CCOCC2)Nc2nc(C)cs2)n1
GI50 (P388): > 31.6 µM (inactive) | GI50 (P388/ADR): > 80.4 µM (inactive) | GI50 (SN12K1): > 100 µM (inactive)

Cc1ccc(C(C[N+](=O)[O-])c2c(-c3ccccc3O)n[nH]c2O)cc1 (stereo not drawn)
IC50 (Vero [6]): > 25 µM (active) | CC50 (Vero [7]): 9.3 µM (active)

Cc1nn(C)c(C)c1Sc1ccc(Br)cc1
EC50 [16]: 4.73 µM (active)

O=C(Nc1cccc(Cl)c1)N1CCN2C(=O)c3ccccc3C12c1ccccc1 (stereo not drawn)
AC50 (Cytochrome P450 1A2): 3.16 µM (inconclusive) | EC50 [16]: 3.76 µM (active)

C/C(=N\NC(=O)c1c[nH]c2ccccc12)c1ccccn1
CC50 [10]: 12.1 µM (active) | EC50 [11]: 1.73 µM (active) | CC50 [13]: 2.01 µM (active) | CC50 [14]: 6.55 µM (active) | EC50 [15]: 3.97 µM (active) | IC50 (Nonstructural protein 1): 3.17 µM (active) | IC50 (cells): 4.29 µM (active)

C/C(=N\Nc1nc2ccccc2[nH]1)c1ccc(N2CCOCC2)cc1
CC50 [10]: > 20 µM (active) | IC50 (cells): 20.3 µM (active)

C/C=C/C1=CC(=O)C(O)C1O (stereo not drawn)
GI50 (P388): 15 µM (inactive) | GI50 (P388/ADR): 17.9 µM (inactive) | GI50 (SN12K1): 28.1 µM (inactive)

COc1ccc([N+](=O)[O-])cc1NCc1ccco1
EC50 [16]: 2.99 µM (active)
